Measured values taken from patent US20090247520A1, “INHIBITORS OF ANTIGEN RECEPTOR-INDUCED NF-kappa B ACTIVATION” (The Burnham Institute for Medical Research, priority 2008, published 2009).

Legend:
[1] = tested on: NOD2 (NLRC2) induced NF-κB-luciferase reporter gene activity; assay: NF-κB reporter in HEK293-NF-κB-luc cells over-expressing NOD2; type: cell-based; settings: CID-2858522 4 μM, IKK inhibitor 10 μM
Experimental: (§1) FIGS. 3 (A-F) HEK293-NF-κB-luc cells were pretreated with CID-2858522 (4 μM), IKK inhibitor, BMS-335541 (10 μM), or PKC inhibitor, Bisindolylmaleimide I (1 μM) for 2 hrs and then transfected with plasmids encoding CD4/TLR4 (A), CD40 (B), NOD1 (C), NOD2 (D), cIAP2-MALT1 (E), or XIAP and TAB (F), or pcDNA as control (compounds were not removed). After 48 hrs, luciferase activity was measured expressing data as fold increase relative to unstimulated cells (mean±SD; n=3). (G-H) HEK293-NF-κB-luc cells were pretreated with CID-2858522 (4 μM), or IKK inhibitor, BMS-335541 (10 μM) for 2 hrs and then cultured with 2 μM doxorubicin (G) or 16 μM retinoic acid (H). After 48 hrs, luciferase activity was measured as above.
Counter Screening and Secondary Assays. To counter-screen for inhibitors of the TNF pathway, HEK293-NFκB-Luc cells were seeded at 10^5 cells per well in 90 μL medium in white 96-well plates (Greiner Bio-One) and cultured overnight, before adding compounds (5 μL in medium) to cells. […] Luciferase activity was measured using Britelite kit (Perkin Elmer). […] Cells were cultured in medium containing CID-2858522 or other compounds and luciferase activity was measured 48 h later. […] Reactions were then initiated by addition of 50 μL 160 nM ATP (Sigma) in PBS and luciferase activity was measured 2 h later using a luminometer (LJL Biosystems, Sunnyvale, Calif.).

[2] = tested on: cIAP2/MALT oncoprotein induced NF-κB activation; assay: NF-κB reporter in 293-NF-κB-luciferase cells transfected with cIAP2/MALT; type: cell-based; settings: CID-2858522 4 μM, IKK inhibitor 10 μM
Experimental: as §1
Counter Screening and Secondary Assays. To counter-screen for inhibitors of the TNF pathway, HEK293-NFκB-Luc cells were seeded at 10^5 cells per well in 90 μL medium in white 96-well plates (Greiner Bio-One) and cultured overnight, before adding compounds (5 μL in medium) to cells. After 2 h incubation, 5 μL TNF (200 ng/mL) (R&D Systems) was added (final concentration 10 ng/mL) and cells were incubated for 16 h. Luciferase activity was measured using Britelite kit (Perkin Elmer). To counter-screen for inhibitors of NF-κB induced by TLR4, CD40, NOD1, NOD2, cIAP2/MALT, or XIAP/TAB, the 293-NF-κB-luc cells cultured in 96 well plates as above were pretreated with compounds for 2 h and then transfected using Lipofectamine 2000 with various plasmids including pcDNA3 (“empty vector” control) or plasmids encoding CD4-TLR4, CD40, NOD1, NOD2, cIAP2/MALT, XIAP/TAB, using 0.2 μL of transfection reagent containing 100 ng DNA per well. Cells were cultured in medium containing CID-2858522 or other compounds and luciferase activity was measured 48 h later. […] Reactions were then initiated by addition of 50 μL 160 nM ATP (Sigma) in PBS and luciferase activity was measured 2 h later using a luminometer (LJL Biosystems, Sunnyvale, Calif.).

[3] = tested on: caspase-8 p43/41 processing intermediate; assay: Caspase-8 p43/41 processing in HEK293 cells after PMA/Ion; type: cell-based; settings: data not shown
Description: Caspase-8 plays an essential role in antigen receptor-mediated NF-κB activation. It was recently reported that MALT1 interacts with Caspase-8 and activates this protease upon antigen receptor activation. […] We then examined if CID-2858522 affected the pathway at this point. PMA induced significant MALT1-caspase-8 interaction in HEK293 cells over-expressing Flag-MALT1 and Caspase-8. […] The caspase-8 p43/41 processing intermediate was generated in HEK293 cells after PMA/Ion treatment. […] We then assessed the effects of CID-2858522 on PMA-induced proteolytic processing of c-FLIP, a Caspase-8-mediated event recently shown to be required for antigen receptor mediated NF-κB activation.

[4] = tested on: CLL B-cells; assay: Cytotoxicity in CLL B-cells by ATP levels; type: cell-based, human; settings: time-frame analyzed
[5] = tested on: IKK-β phosphorylation; assay: PMA/Ionomycin-induced IKK-β phosphorylation in HEK293 cells; type: cell-based; settings: 4 μM
Experimental: FIG. 7. CID-285852 inhibits IKKβ phosphorylation induced by PKC activators. (A) HEK293 cells were cultured in 0.5% FBS medium for 24 h and then treated with CID-2858522 (4 μM) or PKC inhibitor, Bisindolylmaleimide I (1 μM) for 2 hrs followed by PMA/Ionomycin (10 ng/mL; 5 ng/mL) for 2 h. Cell lysates were subjected to immunoprecipitation using anti-CARMA1 antibody and analyzed by immunoblotting with anti-phospho-CARMA1 antibody or anti-CARMA1 antibody. (B-E) HEK293 cells were transfected with plasmids encoding myc-CARMA1 in combination with plasmids encoding various other proteins including Caspase-8 (cys287ala) (B), HA-IKK-γ (C), HA-TAK1 (D), and TRAF6 (E). After 36 h. cells were cultured in 0.5% FBS medium for 12 h and then treated with CID-2858522 (4 μM) or Bisindolylmaleimide I (1 μM) for 2 hrs, followed by PMA/Ionomycin treatment (10 ng/mL; 5 ng/mL) for 2 hrs. Cell lysates were immunoprecipated using anti-myc antibody and analyzed by immunoblotting using anti-Caspase8 (B), anti-HA (C,D), or anti-TRAF6 (E) antibodies. […] Cell lysates were normalized for protein content and analyzed by immunoblotting using anti-FLIP and anti-alpha-tubulin antibodies. […] Cell lysates were immunoprecipitated using anti-IKK-β and analyzed by immunoblotting using anti-phospho-IKK-β antibody or anti-IKK-β antibody (as loading control). […]

SMILES	inhibition of NOD2-induced NF-κB reporter [1]	suppression of cIAP2/MALT-driven NF-κB activation [2]	inhibition of caspase-8 p43/41 processing intermediate [3]	cytotoxicity in CLL B-cells [4]	suppression of cIAP2/MALT-driven NF-κB activation ([2]; listed as CID-288522)	inhibition of PMA/Ionomycin-induced IKK-β phosphorylation [5]
Cc1ccc2nc(NCCN)c3ncc(C)n3c2c1 [BMS-345541, reference compound]	inhibited	effectively suppressed	–	–	–	–
CN(C)CCCn1cc(C2=C(c3c[nH]c4ccccc34)C(=O)NC2=O)c2ccccc21 [Bisindolylmaleimide I, reference compound]	–	–	inhibited	–	–	–
Cc1cc2nc(NCCCO)n(CC(=O)c3cc(C(C)(C)C)c(O)c(C(C)(C)C)c3)c2cc1C [Compound 1, 2-(2-(3-Hydroxypropylamino)-5,6-dimethyl-1H-benzo[d]imidazol-1-yl)-1-(3,5-di-tert-butyl-4-hydroxyphenyl)ethanone]	did not inhibit	did not inhibit	–	not due to cytotoxicity	did not	significantly inhibited
